Paper PMC7529893, “Structural basis for substrate recognition and chemical inhibition of oncogenic MAGE ubiquitin ligases” (Nature Communications, 2020)

Target: T1, MAGE-A11:PCF11 interaction (GST-MAGE-A11 MHD and FAM-PCF11_4) (Homo sapiens, UniProt P43364)
T1 construct: GST-MAGE-A11 MHD (human MAGE-A11 MHD amino acid 218-429); made in house; host or cells: E. coli BL21(DE3)
T1 sequence (P43364 218-429): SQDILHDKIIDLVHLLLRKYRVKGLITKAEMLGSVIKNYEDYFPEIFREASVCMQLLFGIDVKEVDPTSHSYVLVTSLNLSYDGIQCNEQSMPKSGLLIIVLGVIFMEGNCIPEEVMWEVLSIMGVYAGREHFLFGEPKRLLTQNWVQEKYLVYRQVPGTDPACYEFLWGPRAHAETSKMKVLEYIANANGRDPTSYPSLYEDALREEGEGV
Experiment: TR-FRET dose response test of compounds for disruption of MAGE-A11:PCF11 binding
Settings: Dose response TR-FRET screening of nine scaffold groups against MAGE-A11:PCF11; read-out: consensus IC50
Description: The TR-FRET assay buffer with a formula of 50 mM Tris pH 7.5, 20 mM MgCl2, 0.1 mg/ml BSA and 1 mM DTT was freshly prepared before each experiment. All TR-FRET assays were performed in black 384-well plates with 20 µl/well assay volume in the TR-FRET assay buffer at room temperature (~25 °C). All peptides or compounds were solubilized in DMSO. To test the competitive activity of peptides or compounds against the interaction between GST-MAGE-A11 MHD and FAM-PCF11_4 peptide, 10 µl/well peptide or compound at specified concentration was dispensed into a black 384-well low volume plate, followed by 5 µl/well FAM-PCF11_4 (800 nM), 5 µl/well Tb-anti-GST (20 nM), and GST-MAGE-A11 MHD (20 nM). The assay components in each well was then mixed by shaking the plate on an IKA MTS 2/4 digital microtiter plate shaker (IKA Works; Wilmington, NC, USA) for 1 min. The plate was further centrifuged in an Eppendorf 5810 centrifuge with an A-4-62 swing-bucket rotor (Eppendorf AG, Hamburg, Germany) at 201 g for 30 s. The plate was then incubated for 90 min with a lid to avoid light exposure to the assay components. After incubation, the fluorescent emission signals at 520 nm and 490 nm channels of individual wells were measured with a PHERAstar FS plate reader (BMG Labtech; Durham, NC, USA) by using a 340 nm excitation filter, 100 µs delay time, and 200 µs integration time. The TR-FRET fluorescence emission ratio (TR-FRET signal) for each well was presented as 10,000 × 520 nm/490 nm, which was used directly for curve fitting, or further converted to %Inhibition based on the respective positive and negative controls. The graphic software GraphPad Prism 4.81 (GraphPad Software; La Jolla, CA, USA) was used to generate curves and derive IC50 values of tested peptides or compounds, if applicable.
TR-FRET screen for identifying MAGE-A11 small molecule inhibitors was performed as follows. The primary one-concentration screening and subsequent 10 or 20-concentration dose-response tests were accomplished with an automated High Throughput Screening system (HighRes Biosolutions, Beverly, MA)[30]. In the primary screening, 15 µl/well FAM-PCF11_4 (267 nM) was first dispensed with a Multidrop Combi Reagent Dispenser (Thermo Fisher Scientific, Waltham, MA) to black 384-well low-volume assay plates. The plates were spun down with a Velocity11 VSpin microplate centrifuge (Agilent Technologies, Santa Clara, CA). In total, 30 nl/well of 10 mM compound/DMSO solutions, or DMSO alone, were transferred from compound plates (the St. Jude FDA drug and bioactive library, Drug-like library and Lead-like library) or a control plate to the assay plates with a Pin Tool (V&P Scientific, San Diego, CA). The compounds were arrayed in columns 3–12 and columns 15–24 of compound plates. The controls were arrayed in columns 1, 2, 13, and 14 of a compound plate. In all, 5 µl/well Tb-anti-GST (20 nM) and GST-MAGE-A11 (20 nM) or 5 µl/well Tb-anti-GST (20 nM) alone was then dispensed to selected wells with a Multidrop Combi Reagent Dispenser. The final assay volume was 20 µl/well. The final DMSO concentration was 0.25% (v/v) (0.1% (v/v) from the FAM-PCF11_4 DMSO stock solution and 0.15% (v/v) from the compound-DMSO solution or the DMSO for the control wells). The final tested compound concentration was 15 µM. The final FAM-PCF11_4 concentration was 200 nM and the final Tb-anti-GST concentration was 5 nM. The final GST-MAGE-A11 concentration was 5 nM except for those selected positive control wells in which GST-MAGE-A11 was not presented. The plates were then shaken with a big bear shaker (Big Bear Automation, Santa Clara, California) and spun down with the Velocity11 VSpin microplate centrifuge for 20 s. The plates were then incubated at room temperature in a Liconic incubator (Liconic US, Woburn, MA) for 90 min. The TR-FRET signals for individual wells were measured with a PHERAstar FS plate reader. The %Inhibition of each tested inhibitor was calculated by using Eq. 1.

IC50 [µM]	Compound
26.3	COc1ccc(F)cc1CNCCCNc1ccnc2cc(CC3CCCCC3)ccc12 [SJ000311253-1]
26.5	COc1cccc(CNCCCNc2ccnc3cc(CCc4ccccc4)ccc23)c1O [SJ000311255-1]
62.3	c1ccc(CCc2ccc3c(NCCCNCc4cccc5c4OCO5)ccnc3c2)cc1 [SJ000311257-1]
9.95	CCC(CC)c1ccc2c(NCCCNCc3cccc(OC)c3O)ccnc2c1 [SJ000311267-1]
28.9	CCC(CC)c1ccc2c(NCCCNCc3cccc4c3OCO4)ccnc2c1 [SJ000311268-1]
43	CCC(CC)c1ccc2c(NCCCNCc3cc(F)ccc3OC)ccnc2c1 [SJ000311269-1]
9.02	FC(F)(F)c1cc(-c2ccc3c(NCCCNCc4cccc5c4OCO5)ccnc3c2)cc(C(F)(F)F)c1 [SJ000311272-1]
7.69	COc1ccc(F)cc1CNCCCNc1ccnc2cc(-c3cc(C(F)(F)F)cc(C(F)(F)F)c3)ccc12 [SJ000311273-1]
31.2	c1cc(CNCCCNc2ccnc3cc(-c4cccc5ccccc45)ccc23)c2c(c1)OCO2 [SJ000311276-1]
15.7	FC(F)(F)c1ccc(-c2ccc3c(NCCCNCc4cccc5c4OCO5)ccnc3c2)cc1 [SJ000311280-1]
24.1	COc1cccc(CNCCCNc2ccnc3cc(-c4ccccc4)ccc23)c1O [SJ000311283-1]
22.2	c1ccc(-c2ccc3c(NCCCNCc4cccc5c4OCO5)ccnc3c2)cc1 [SJ000311284-1]
6.87	CC(C)(C)c1ccc(-c2ccc3c(NCCCNCc4cccc5c4OCO5)ccnc3c2)cc1 [SJ000311288-1]
4.62	COc1ccc(F)cc1CNCCCNc1ccnc2cc(-c3ccc(C(C)(C)C)cc3)ccc12 [SJ000311289-1]
30.5	c1cc(CNCCCNc2ccnc3cc(-c4ccc5c(c4)OCO5)ccc23)c2c(c1)OCO2 [SJ000311292-1]
12.8	FC(F)(F)c1cccc(Cc2ccc3c(NCCCNCc4cccc5c4OCO5)ccnc3c2)c1 [SJ000311300-1]
22.1	COc1ccc(F)cc1CNCCCNc1ccnc2cc(Cc3cccc(C(F)(F)F)c3)ccc12 [SJ000311301-2]
51	COc1cccc(CNCCCNc2ccnc3cc(Cc4ccc(C#N)cc4)ccc23)c1O [SJ000311303-1]
31.3	COc1cc(Cc2ccc3c(NCCCNCc4cccc5c4OCO5)ccnc3c2)cc(OC)c1 [SJ000311312-1]
33.8	COc1cc(Cc2ccc3c(NCCCNCc4cc(F)ccc4OC)ccnc3c2)cc(OC)c1 [SJ000311313-1]
13.8	COc1cccc(CNCCCNc2ccnc3cc(Cc4c(Cl)cccc4Cl)ccc23)c1O [SJ000311315-1]
12.2	COc1ccc(F)cc1CNCCCNc1ccnc2cc(Cc3c(Cl)cccc3Cl)ccc12 [SJ000311317-1]

The next lines start with the compound.

Compound	IC50 [µM]
COc1ccc(F)cc1CNCCCNc1ccnc2cc(CCc3ccccc3)ccc12 [SJ000311256-1]	37.1
COc1cccc(CNCCCNc2ccnc3cc(CC(C)C)ccc23)c1O [SJ000311259-1]	68.5
COc1cccc(CNCCCNc2ccnc3cc(C4CCCCC4)ccc23)c1O [SJ000311263-1]	32.4
c1cc(CNCCCNc2ccnc3cc(C4CCCCC4)ccc23)c2c(c1)OCO2 [SJ000311264-1]	23.7
COc1ccc(F)cc1CNCCCNc1ccnc2cc(C3CCCCC3)ccc12 [SJ000311265-1]	24.2
COc1cccc(CNCCCNc2ccnc3cc(-c4cccc5ccccc45)ccc23)c1O [SJ000311275-1]	16
COc1ccc(F)cc1CNCCCNc1ccnc2cc(-c3cccc4ccccc34)ccc12 [SJ000311277-1]	10.3
COc1cccc(CNCCCNc2ccnc3cc(-c4ccc(C(F)(F)F)cc4)ccc23)c1O [SJ000311279-1]	9.52
COc1ccc(F)cc1CNCCCNc1ccnc2cc(-c3ccc(C(F)(F)F)cc3)ccc12 [SJ000311281-1]	13.4
COc1ccc(F)cc1CNCCCNc1ccnc2cc(-c3ccccc3)ccc12 [SJ000311285-1]	28.2
COc1cccc(CNCCCNc2ccnc3cc(-c4ccc(C(C)(C)C)cc4)ccc23)c1O [SJ000311287-1]	4.67
COc1cccc(CNCCCNc2ccnc3cc(-c4ccc5c(c4)OCO5)ccc23)c1O [SJ000311291-1]	24.6
COc1ccc(F)cc1CNCCCNc1ccnc2cc(-c3ccc4c(c3)OCO4)ccc12 [SJ000311293-1]	29.9
COc1cccc(CNCCCNc2ccnc3cc(Cc4cccc(C(F)(F)F)c4)ccc23)c1O [SJ000311299-1]	27.5
N#Cc1ccc(Cc2ccc3c(NCCCNCc4cccc5c4OCO5)ccnc3c2)cc1 [SJ000311304-1]	66
c1ccc(Cc2ccc3c(NCCCNCc4cccc5c4OCO5)ccnc3c2)cc1 [SJ000311308-1]	46.1
COc1ccc(F)cc1CNCCCNc1ccnc2cc(Cc3ccccc3)ccc12 [SJ000311309-1]	18.3
COc1cc(Cc2ccc3c(NCCCNCc4cccc(OC)c4O)ccnc3c2)cc(OC)c1 [SJ000311311-1]	33.6
Clc1cccc(Cl)c1Cc1ccc2c(NCCCNCc3cccc4c3OCO4)ccnc2c1 [SJ000311316-1]	11

Same assay, conditions: Supplementary Data 3, 59 quinoline compounds; read-out: TR-FRET IC50

IC50 [µM]	Compound
> 70	c1coc(CNCCCNc2ccnc3cc(-c4cccc5ccccc45)ccc23)c1 [SJ000311274-1, C(CNCc1occc1)CNc2ccnc3cc(ccc23)c4cccc5ccccc45]
> 70	c1coc(CNCCCNc2ccnc3cc(-c4ccc5c(c4)OCO5)ccc23)c1 [SJ000311290-1, C(CNCc1occc1)CNc2ccnc3cc(ccc23)c4ccc5OCOc5c4]
32.2	c1ccc(Cc2ccc3c(NCCCNCc4ccco4)ccnc3c2)cc1 [SJ000311306-2, C(CNCc1occc1)CNc2ccnc3cc(Cc4ccccc4)ccc23]

Further lines, the compound ahead of its results:

Compound	IC50 [µM]
c1coc(CNCCCNc2ccnc3cc(C4CCCCC4)ccc23)c1 [SJ000311262-1, C(CNCc1occc1)CNc2ccnc3cc(ccc23)C4CCCCC4]	> 70
FC(F)(F)c1ccc(-c2ccc3c(NCCCNCc4ccco4)ccnc3c2)cc1 [SJ000311278-1, FC(F)(F)c1ccc(cc1)c2ccc3c(NCCCNCc4occc4)ccnc3c2]	22.7
Clc1cccc(Cl)c1Cc1ccc2c(NCCCNCc3ccco3)ccnc2c1 [SJ000311314-1, Clc1cccc(Cl)c1Cc2ccc3c(NCCCNCc4occc4)ccnc3c2]	38.4
Cc1cc(C)cc(Cc2ccc3c(NCCCNCc4ccco4)ccnc3c2)c1 [SJ000311318-2, Cc1cc(C)cc(Cc2ccc3c(NCCCNCc4occc4)ccnc3c2)c1]	> 70

Same assay, conditions: Supplementary Data 4; read-out: TR-FRET, IC50

IC50 [µM]	Compound
4.07	FC(F)(F)c1ccc(-c2ccc3c(NCCCNCc4cccc5c4OCO5)ccnc3c2)cc1 [SJ000311280-01]
5.58	COc1ccc(F)cc1CNCCCNc1ccnc2cc(-c3ccc(C(F)(F)F)cc3)ccc12 [SJ000311281-01]
20.6	c1ccc(-c2ccc3c(NCCCNCc4cccc5c4OCO5)ccnc3c2)cc1 [SJ000311284-01]
